In patent US11497746B2, “Pharmaceutical combinations comprising a histone deacetylase inhibitor and a programmed death-ligand 1 (PD-L1) inhibitor and methods of use thereof” (Acetylon Pharmaceuticals, Inc., priority 2016, dated 2022):

Columns and labels:
[1] = tested on: H929 multiple myeloma cells; experiment: PD-L1 expression by flow cytometry in H929 cells; type: cell-based; settings: Compound A 1 μM and 2 μM, 48 hours, flow cytometry (FIG. 1)
Experimental: After bone marrow aspiration, fresh bone marrow mononuclear cells (MNC) were obtained by ammonium chloride based-lyses of red cells followed by washing in phosphate-buffered saline (PBS). For ADCC assays, cells were immediately incubated with anti-PD-L1 antibody (BMS-936559, also referred to herein as “MDX-1105” 1 μg/mL) in the presence of Compound A or Compound B in complete medium in 96-well plate. The cells were incubated for 72 h at 37° C. in a 5% CO2 environment. The viability of primary MM cells in BM MNC was determined by near infrared (n-IR) viability dyes. The surviving CD138+ MM cells were enumerated in the presence of Flow-Count Fluorospheres (Beckman Coulter, CA, USA), to determine absolute numbers of viable MM cells. Phenotypic analyses of MNC were performed using a single 5-color combination of monoclonal antibodies containing BV421/PD-L1(CD274)-BV711 (BD Biosciences, San Jose, Calif., USA). PD-L1 on plasma cells was determined using a commercial assay (BD Biosciences, San Jose, Calif., USA). After incubation, cells were washed twice in PBS containing 2% BSA, and then re-suspended in PBS for analysis on a Fortessa cytometer (Becton Dickinson, Mountain View, Calif.). MM cell lines were also applied to this method in some experiments. […]

[2] = tested on: MM.1S, H929, KMS12-PE, OPM1 and U266 multiple myeloma cells; experiment: PD-L1 expression in a panel of multiple myeloma cell lines; type: cell-based; settings: 2 μM, 48 hours (FIG. 2)
Experimental: After bone marrow aspiration, fresh bone marrow mononuclear cells (MNC) were obtained by ammonium chloride based-lyses of red cells followed by washing in phosphate-buffered saline (PBS). For ADCC assays, cells were immediately incubated with anti-PD-L1 antibody (BMS-936559, also referred to herein as “MDX-1105” 1 μg/mL) in the presence of Compound A or Compound B in complete medium in 96-well plate. […] The viability of primary MM cells in BM MNC was determined by near infrared (n-IR) viability dyes. The surviving CD138+ MM cells were enumerated in the presence of Flow-Count Fluorospheres (Beckman Coulter, CA, USA), to determine absolute numbers of viable MM cells. Phenotypic analyses of MNC were performed using a single 5-color combination of monoclonal antibodies containing BV421/PD-L1(CD274)-BV711 (BD Biosciences, San Jose, Calif., USA). PD-L1 on plasma cells was determined using a commercial assay (BD Biosciences, San Jose, Calif., USA). After incubation, cells were washed twice in PBS containing 2% BSA, and then re-suspended in PBS for analysis on a Fortessa cytometer (Becton Dickinson, Mountain View, Calif.). MM cell lines were also applied to this method in some experiments.

[3] = tested on: U266 cells; experiment: PD-L1 expression in U266 cells cultured in stromal cell supernatant; type: cell-based; settings: Compound B 1 μM, 48 hours, FCM (FIG. 3)
Experimental: Mononuclear cells separated by Ficoll-Hypaque density sedimentation from bone marrow aspirates were cultured in 15% FBS-RPMI1640 for 5-6 weeks to establish long-term bone marrow stromal cells. Culture supernatant from BMSCs was used for stimulation of MM cell lines.
(§1) After bone marrow aspiration, fresh bone marrow mononuclear cells (MNC) were obtained by ammonium chloride based-lyses of red cells followed by washing in phosphate-buffered saline (PBS). For ADCC assays, cells were immediately incubated with anti-PD-L1 antibody (BMS-936559, also referred to herein as “MDX-1105” 1 μg/mL) in the presence of Compound A or Compound B in complete medium in 96-well plate. The cells were incubated for 72 h at 37° C. in a 5% CO2 environment. The viability of primary MM cells in BM MNC was determined by near infrared (n-IR) viability dyes. The surviving CD138+ MM cells were enumerated in the presence of Flow-Count Fluorospheres (Beckman Coulter, CA, USA), to determine absolute numbers of viable MM cells. […] PD-L1 on plasma cells was determined using a commercial assay (BD Biosciences, San Jose, Calif., USA). […]
To determine the effect stromal cell priming has on PD-L1 expression in U266 cells treated with Compound B, U266 cells were cultured in stromal cell supernatant (sup) in the presence or absence of Compound B (1 μM) for 48 hours. PD-L1 expression was assessed by FCM. […]

[4] = tested on: U266 cells; experiment: anti-PD-L1 antibody-dependent cell-mediated cytotoxicity in U266 cells; type: cell-based; settings: Compound B 1 μM plus stromal cell supernatant 48 hours, then anti-PD-L1 antibody 1 μg/ml and PBMC (E/T=15/1 and 30/1) 5 hours, FCM (FIG. 4)
Experimental: Multiple myeloma cells were incubated with Calcein-AM (Invitrogen, 2 μg/ml/1 million cells) for 30 min at 37° C. After washing, the cells were used for target cells. Mononuclear cells were obtained from healthy volunteer peripheral blood by Ficoll-Paque density centrifugation and used for effector cells. […] Percent specific lysis was calculated as follows, % specific lysis=[experiment fluorescence−spontaneous fluorescence (no effector)]/[complete lysis (100% killing by detergent)−spontaneous fluorescence (no effector)]×100.
as §1

[5] = tested on: H929 cells; experiment: anti-PD-L1 antibody-dependent cell-mediated cytotoxicity in H929 cells; type: cell-based; settings: H929 cells with PBMCs, Compound B alone 0.25, 0.5, 1 μM, 72 h, then anti-PD-L1 antibody 0.5 μg/ml 3 h, FCM (FIG. 7)
Experimental: After bone marrow aspiration, fresh bone marrow mononuclear cells (MNC) were obtained by ammonium chloride based-lyses of red cells followed by washing in phosphate-buffered saline (PBS). For ADCC assays, cells were immediately incubated with anti-PD-L1 antibody (BMS-936559, also referred to herein as “MDX-1105” 1 μg/mL) in the presence of Compound A or Compound B in complete medium in 96-well plate. The cells were incubated for 72 h at 37° C. in a 5% CO2 environment. The viability of primary MM cells in BM MNC was determined by near infrared (n-IR) viability dyes. […] PD-L1 on plasma cells was determined using a commercial assay (BD Biosciences, San Jose, Calif., USA). […]
To assess the effect of Compound B in combination with pomalidomide on ADCC using anti-PD-L1 antibody-dependent cell-mediated cytotoxicity in H929 cells, H929 cells were stained with carboxyfluorescein succinimidyl ester (CFSE) and cultured with PBMCs in the presence or absence of pomalidomide (0.1 μM), Compound B (0.25, 0.5, 1 μM) for 72 hours. […] Cytotoxicity was assessed by FCM. […]
H929 cells were stained with CFSE and cultured with PBMCs in the presence or absence of pomalidomide (0.1 μM), Compound B (0.25, 0.5, 1 μM) for 72 h. […] Cytotoxicity was assessed by FCM (FIG. 7). […]

[6] = tested on: Mononuclear cells from MM patients' bone marrow aspirates; experiment: anti-PD-L1 antibody induced cytotoxicity, autologous setting, ex vivo; type: cell-based, human; settings: anti-PD-L1 Ab 0.5 μg/ml, Compound B 0.5 μM, 72 h (FIG. 8 and FIG. 9)
Experimental: After bone marrow aspiration, fresh bone marrow mononuclear cells (MNC) were obtained by ammonium chloride based-lyses of red cells followed by washing in phosphate-buffered saline (PBS). […] The cells were incubated for 72 h at 37° C. in a 5% CO2 environment. The viability of primary MM cells in BM MNC was determined by near infrared (n-IR) viability dyes. The surviving CD138+ MM cells were enumerated in the presence of Flow-Count Fluorospheres (Beckman Coulter, CA, USA), to determine absolute numbers of viable MM cells. Phenotypic analyses of MNC were performed using a single 5-color combination of monoclonal antibodies containing BV421/PD-L1(CD274)-BV711 (BD Biosciences, San Jose, Calif., USA). PD-L1 on plasma cells was determined using a commercial assay (BD Biosciences, San Jose, Calif., USA). After incubation, cells were washed twice in PBS containing 2% BSA, and then re-suspended in PBS for analysis on a Fortessa cytometer (Becton Dickinson, Mountain View, Calif.). MM cell lines were also applied to this method in some experiments.
H929 cells were stained with CFSE and cultured with PBMCs in the presence or absence of pomalidomide (0.1 μM), Compound B (0.25, 0.5, 1 μM) for 72 h. The cells were then incubated with Ab (0.5 μg/ml PD-L1) for 3 h. Cytotoxicity was assessed by FCM (FIG. 7). […]

[7] = tested on: RPMI8226 cells; experiment: anti-PD-L1 antibody-dependent cell-mediated cytotoxicity in RPMI8226 cells; type: cell-based; settings: RPMI8226 cells with PBMCs (E/T=15/1), pomalidomide 0.1 μM 72 hours, then anti-PD-L1 antibody 0.5 μg/ml 3 hours, FCM (FIG. 5)
Experimental: After bone marrow aspiration, fresh bone marrow mononuclear cells (MNC) were obtained by ammonium chloride based-lyses of red cells followed by washing in phosphate-buffered saline (PBS). For ADCC assays, cells were immediately incubated with anti-PD-L1 antibody (BMS-936559, also referred to herein as “MDX-1105” 1 μg/mL) in the presence of Compound A or Compound B in complete medium in 96-well plate. The cells were incubated for 72 h at 37° C. in a 5% CO2 environment. The viability of primary MM cells in BM MNC was determined by near infrared (n-IR) viability dyes. The surviving CD138+ MM cells were enumerated in the presence of Flow-Count Fluorospheres (Beckman Coulter, CA, USA), to determine absolute numbers of viable MM cells. Phenotypic analyses of MNC were performed using a single 5-color combination of monoclonal antibodies containing BV421/PD-L1(CD274)-BV711 (BD Biosciences, San Jose, Calif., USA). PD-L1 on plasma cells was determined using a commercial assay (BD Biosciences, San Jose, Calif., USA). […]
Similarly, RPMI8226 cells were cultured with PBMCs (E/T=15/1) in the presence or absence of pomalidomide (Pom, 0.1 μM) for 72 hours. After subsequent cultivation with anti-PD-L1 antibody (0.5 μg/ml) for 3 hours, percent specific killing was assessed by FCM. […]

Compound: O=C(CCCCCCNC(=O)c1cnc(N(c2ccccc2)c2ccccc2)nc1)NO [Compound A, 2-(diphenylamino)-N-(7-(hydroxyamino)-7-oxoheptyl)pyrimidine-5-carboxamide]
- PD-L1 expression [1]: increased

Compound: O=C(CCCCCCNC(=O)c1cnc(N(c2ccccc2)c2ccccc2Cl)nc1)NO [Compound B, 2-((2-chlorophenyl)(phenyl)amino)-N-(7-(hydroxyamino)-7-oxoheptyl)pyrimidine-5-carboxamide]
- PD-L1 expression [2]: enhanced
- PD-L1 expression [3]: highest
- percent specific lysis [4]: greatest
- anti-PD-L1 Ab-induced cytotoxicity [5]: enhanced
- anti-PD-L1 antibody induced-cytotoxicity [6]: enhanced

Compound: Nc1cccc2c1C(=O)N(C1CCC(=O)NC1=O)C2=O (stereo not shown) [Pomalidomide, pomalidomide]
- percent specific killing (cytotoxicity) [7]: enhanced
